From PubChem BioAssay AID280 (DTP/NCI, 2004)
Several values for one entry are separate records, joined by “and”; a condition that tells them apart may be missing. Equal values may be shown once. Inconclusive results and toxic doses are left out. Rule for the calls: active = survival T/C of 150% or more; inactive = T/C below 125% in these data.

Tested on: nude mice, LOX melanoma ip, survival T/C
Assay: NCI In Vivo Anticancer Drug Screen. Data for tumor model Human Amelanotic Melanoma (LOX) (intraperitoneal) in NU/NU BALB/C (nude) mice
Conditions: endpoint: median survival time, higher = longer survival
Experimental: The antitumor activity of compounds was measured in mice bearing transplantable tumors. Survival or tumor size were measured and the results are expressed as the measurement made in the treated group (T) divided by the measurement made in the vehicle treated control group (C). The tumor model used in this assay is Human Amelanotic Melanoma (LOX) (intraperitoneal) in NU/NU BALB/C (nude) mice

[1] = dose: 50.0 mg/kg/injection, schedule: Q04DX003 (ip), vehicle: saline with Tween-80
[2] = dose: 100.0 mg/kg/injection, schedule: Q04DX003 (ip), vehicle: saline with Tween-80
[3] = dose: 200.0 mg/kg/injection, schedule: Q04DX003 (ip), vehicle: saline with Tween-80
[4] = dose: 400.0 mg/kg/injection, schedule: Q04DX003 (ip), vehicle: saline with Tween-80
[5] = dose: 800.0 mg/kg/injection, schedule: Q04DX003 (ip), vehicle: saline with Tween-80
[6] = dose: 50.0 mg/kg/injection, schedule: Q04DX003 (ip), vehicle: Klucel (hydroxypropylcellulose) (HPC)
[7] = dose: 200.0 mg/kg/injection, schedule: Q04DX003 (ip), vehicle: Klucel (hydroxypropylcellulose) (HPC)
[8] = dose: 100.0 mg/kg/injection, schedule: Q04DX003 (ip), vehicle: Klucel (hydroxypropylcellulose) (HPC)
[9] = dose: 150.0 mg/kg/injection, schedule: Q04DX003 (ip), vehicle: saline with Tween-80
[10] = dose: 75.0 mg/kg/injection, schedule: Q04DX003 (ip), vehicle: saline with Tween-80
[11] = dose: 300.0 mg/kg/injection, schedule: Q04DX003 (ip), vehicle: saline with Tween-80

Measured: T/C

CN(Cc1cnc2nc(N)nc(N)c2n1)c1ccc(C(=O)N[C@@H](CCC(=O)O)C(=O)O)cc1
inactive: dose: 0.38 mg/kg/injection, schedule: Q01DX015 (ip), vehicle: sodium bicarbonate 90 % of control | dose: 0.75 mg/kg/injection, schedule: Q01DX005 (ip), vehicle: sodium bicarbonate 90 % of control | dose: 1.5 mg/kg/injection, schedule: Q01DX005 (ip), vehicle: sodium bicarbonate 113 % of control | dose: 1.5 mg/kg/injection, schedule: Q01DX015 (ip), vehicle: sodium bicarbonate 95 % of control | dose: 3.0 mg/kg/injection, schedule: Q01DX005 (ip), vehicle: sodium bicarbonate 112 % of control | dose: 3.0 mg/kg/injection, schedule: Q01DX015 (ip), vehicle: sodium bicarbonate 102 % of control | dose: 6.0 mg/kg/injection, schedule: Q01DX005 (ip), vehicle: sodium bicarbonate 112 % of control | dose: 10.0 mg/kg/injection, schedule: Q04DX003 (ip), vehicle: sodium bicarbonate 107 % of control | dose: 12.0 mg/kg/injection, schedule: Q01DX005 (ip), vehicle: sodium bicarbonate 107 % of control | dose: 12.0 mg/kg/injection, schedule: Q04DX003 (ip), vehicle: sodium bicarbonate 105 % of control and 112 % of control | dose: 18.0 mg/kg/injection, schedule: Q04DX003 (ip), vehicle: sodium bicarbonate 103 % of control and 101 % of control | dose: 20.0 mg/kg/injection, schedule: Q04DX003 (ip), vehicle: sodium bicarbonate 102 % of control | dose: 25.0 mg/kg/injection, schedule: Q01DX001 (ip), vehicle: sodium bicarbonate 107 % of control | dose: 27.0 mg/kg/injection, schedule: Q04DX003 (ip), vehicle: sodium bicarbonate 105 % of control and 112 % of control | dose: 40.0 mg/kg/injection, schedule: Q04DX003 (ip), vehicle: sodium bicarbonate 113 % of control | dose: 50.0 mg/kg/injection, schedule: Q01DX001 (ip), vehicle: sodium bicarbonate 106 % of control | dose: 100.0 mg/kg/injection, schedule: Q01DX001 (ip), vehicle: sodium bicarbonate 103 % of control | dose: 200.0 mg/kg/injection, schedule: Q01DX001 (ip), vehicle: sodium bicarbonate 121 % of control

NC(=O)c1[nH]cnc1O
inactive: [1] 95 % of control and 98 % of control | [2] 116 % of control and 100 % of control | [3] 104 % of control and 111 % of control | [4] 96 % of control | [5] 88 % of control

O=C([O][Bi]([c]1ccccc1)[c]1ccccc1)c1ccccc1
inactive: dose: 12.5 mg/kg/injection, schedule: Q04DX003 (ip), vehicle: Klucel (hydroxypropylcellulose) (HPC) 98 % of control | [7] 103 % of control
active: [6] 211 % of control

CC1=NN(c2cccc(S(=O)(=O)O)c2)C(=O)C1N=Nc1cc(Cl)cc(S(=O)(=O)O)c1O.CC1=NN(c2cccc(S(=O)(=O)O)c2)C(=O)C1N=Nc1cc(Cl)cc(S(=O)(=O)O)c1O.[Cr] (configuration not stated)
inactive: dose: 75.0 mg/kg/injection, schedule: Q04DX003 (ip), vehicle: suspension in saline 97 % of control | dose: 150.0 mg/kg/injection, schedule: Q04DX003 (ip), vehicle: suspension in saline 94 % of control | dose: 300.0 mg/kg/injection, schedule: Q04DX003 (ip), vehicle: suspension in saline 87 % of control

CCOC(=O)c1c[nH]c2ccc3c(nc(C)n3C)c2c1=O
inactive: [6] 100 % of control | [8] 104 % of control | [7] 93 % of control | dose: 400.0 mg/kg/injection, schedule: Q04DX003 (ip), vehicle: Klucel (hydroxypropylcellulose) (HPC) 100 % of control | dose: 800.0 mg/kg/injection, schedule: Q04DX003 (ip), vehicle: Klucel (hydroxypropylcellulose) (HPC) 94 % of control

COc1cc2c[n+](C)c3c(c2cc1OC)Cc1cc2c(cc1-3)OCO2
active: [9] 201 % of control
inactive: dose: 18.75 mg/kg/injection, schedule: Q04DX003 (ip), vehicle: saline with Tween-80 108 % of control

C=C(c1ccc(OC)c(OC)c1)c1nccc2cc(OC)c(OC)cc12
inactive: dose: 75.0 mg/kg/injection, schedule: Q04DX003 (ip), vehicle: Klucel (hydroxypropylcellulose) (HPC) 88 % of control | dose: 150.0 mg/kg/injection, schedule: Q04DX003 (ip), vehicle: Klucel (hydroxypropylcellulose) (HPC) 99 % of control | dose: 300.0 mg/kg/injection, schedule: Q04DX003 (ip), vehicle: Klucel (hydroxypropylcellulose) (HPC) 96 % of control

Nc1ccn([C@@H]2C=C(CO)[C@@H](O)[C@H]2O)c(=O)n1
active: dose: 1.0 mg/kg/injection, schedule: Q01DX009 (ip), vehicle: saline 219 % of control

O=C1C2=C(Nc3cc([N+](=O)[O-])ccc3N2)OC1c1ccccn1 (configuration not stated)
inactive: dose: 25.0 mg/kg/injection, schedule: Q04DX003 (ip), vehicle: Klucel (hydroxypropylcellulose) (HPC) 99 % of control | [6] 99 % of control | [8] 110 % of control | [7] 110 % of control

CC(=O)C[n+]1ccc(C)cc1Sc1ccccc1C
inactive: dose: 12.5 mg/kg/injection, schedule: Q04DX003 (ip), vehicle: saline with Tween-80 93 % of control | dose: 25.0 mg/kg/injection, schedule: Q04DX003 (ip), vehicle: saline with Tween-80 99 % of control | [1] 95 % of control | [2] 88 % of control

BrC[P+](CBr)(CBr)CBr
inactive: [1] 113 % of control | [2] 121 % of control | [3] 105 % of control | [4] 103 % of control | [5] 119 % of control

CC1OC2CC(O)C1(O)C1=C2C(O)=C(C(N)=O)C(=N)C1=O (configuration not stated)
inactive: dose: 0.32 mg/kg/injection, schedule: Q04DX003 (ip), vehicle: saline + Tween-80 + alcohol 106 % of control | dose: 0.63 mg/kg/injection, schedule: Q04DX003 (ip), vehicle: saline + Tween-80 + alcohol 99 % of control | dose: 1.25 mg/kg/injection, schedule: Q04DX003 (ip), vehicle: saline + Tween-80 + alcohol 106 % of control | dose: 2.5 mg/kg/injection, schedule: Q04DX003 (ip), vehicle: saline + Tween-80 + alcohol 102 % of control | dose: 5.0 mg/kg/injection, schedule: Q04DX003 (ip), vehicle: saline + Tween-80 + alcohol 102 % of control

O=c1cc(-c2ccccc2)[nH]c2c1CCCC2
inactive: [10] 115 % of control | [9] 115 % of control | dose: 259.0 mg/kg/injection, schedule: Q04DX003 (ip), vehicle: saline with Tween-80 106 % of control | [11] 114 % of control | dose: 432.0 mg/kg/injection, schedule: Q04DX003 (ip), vehicle: saline with Tween-80 100 % of control | dose: 600.0 mg/kg/injection, schedule: Q04DX003 (ip), vehicle: saline with Tween-80 124 % of control | dose: 720.0 mg/kg/injection, schedule: Q04DX003 (ip), vehicle: saline with Tween-80 114 % of control

CC(C)NC(=O)OCc1c(COC(=O)NC(C)C)c(-c2ccc(Cl)c(Cl)c2)n2c1CCC2
active: [10] 238 % of control | dose: 75.0 mg/kg/injection, schedule: Q04DX003 (ip), vehicle: saline 152 % of control | [9] 324 % of control | dose: 150.0 mg/kg/injection, schedule: Q04DX003 (ip), vehicle: saline 210 % of control | [11] 313 % of control | dose: 300.0 mg/kg/injection, schedule: Q04DX003 (ip), vehicle: saline 178 % of control | dose: 600.0 mg/kg/injection, schedule: Q04DX003 (ip), vehicle: saline 344 % of control | dose: 1200.0 mg/kg/injection, schedule: Q04DX003 (ip), vehicle: saline 344 % of control

COc1ccc(C[C@@H]2NC[C@@H](O)[C@@H]2OC(C)=O)cc1
inactive: dose: 37.5 mg/kg/injection, schedule: Q04DX003 (ip), vehicle: saline with Tween-80 101 % of control | [10] 101 % of control | [9] 103 % of control | [11] 101 % of control
